# According to paper PMC3530532, “Corticosteroid-Binding Globulin: Structure-Function Implications from Species Differences” (PLoS ONE, 2012):
# T1: Rat CBG-WT (Rattus norvegicus, UniProt P31211)
# T1 construct: residues 5 to 374 of rat CBG (P31211); GST (N, cleaved yes); made in house; host or cells: E. coli BL21 Star (DE3)
# T1 sequence (P31211 27-396): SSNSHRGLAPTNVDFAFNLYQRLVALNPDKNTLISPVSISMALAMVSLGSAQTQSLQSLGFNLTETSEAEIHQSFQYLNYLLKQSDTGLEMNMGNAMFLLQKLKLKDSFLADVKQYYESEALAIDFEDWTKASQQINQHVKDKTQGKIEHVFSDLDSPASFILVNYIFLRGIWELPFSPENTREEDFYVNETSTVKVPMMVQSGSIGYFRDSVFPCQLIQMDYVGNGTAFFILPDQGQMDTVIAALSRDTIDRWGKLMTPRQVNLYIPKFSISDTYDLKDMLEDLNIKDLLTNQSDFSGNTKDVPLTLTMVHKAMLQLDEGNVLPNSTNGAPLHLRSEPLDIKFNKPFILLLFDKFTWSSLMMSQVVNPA
# B1: CBG-RCL2: rat CBG variant CBG-RCL1 plus mutations P329T and N333T (protein, UniProt P31211 23-396, looked up, variant A335V P336T P329T N333T)
# Corticosteroid-binding …: STNESSNSHRGLAPTNVDFAFNLYQRLVALNPDKNTLISPVSISMALAMVSLGSAQTQSLQSLGFNLTETSEAEIHQSFQYLNYLLKQSDTGLEMNMGNAMFLLQKLKLKDSFLADVKQYYESEALAIDFEDWTKASQQINQHVKDKTQGKIEHVFSDLDSPASFILVNYIFLRGIWELPFSPENTREEDFYVNETSTVKVPMMVQSGSIGYFRDSVFPCQLIQMDYVGNGTAFFILPDQGQMDTVIAALSRDTIDRWGKLMTPRQVNLYIPKFSISDTYDLKDMLEDLNIKDLLTNQSDFSGNTKDVPLTLTMVHKAMLQLDEGNVLTNSTTGVTLHLRSEPLDIKFNKPFILLLFDKFTWSSLMMSQVVNPA
# B2: CBG-RCL3: rat CBG variant CBG-RCL2 plus R174K, D323N, G325E and N326G (protein, UniProt P31211 23-396, looked up, variant A335V P336T P329T N333T R174K D323N G325E N326G)
# Corticosteroid-binding …: STNESSNSHRGLAPTNVDFAFNLYQRLVALNPDKNTLISPVSISMALAMVSLGSAQTQSLQSLGFNLTETSEAEIHQSFQYLNYLLKQSDTGLEMNMGNAMFLLQKLKLKDSFLADVKQYYESEALAIDFEDWTKASQQINQHVKDKTQGKIEHVFSDLDSPASFILVNYIFLKGIWELPFSPENTREEDFYVNETSTVKVPMMVQSGSIGYFRDSVFPCQLIQMDYVGNGTAFFILPDQGQMDTVIAALSRDTIDRWGKLMTPRQVNLYIPKFSISDTYDLKDMLEDLNIKDLLTNQSDFSGNTKDVPLTLTMVHKAMLQLNEEGVLTNSTTGVTLHLRSEPLDIKFNKPFILLLFDKFTWSSLMMSQVVNPA
# What was measured:
# Rat CBG-WT = molecular target: T1, Rat CBG-WT; assay: Isothermal titration calorimetry, steroid titrated to rat CBG-WT; type: binding; settings: ITC, 25°C
# Protocol: The coding sequences of residues 11 to 383 of human CBG (Swiss-Prot entry P08185) and residues 5 to 374 of rat CBG (P31211) were cloned into a pGEX-2T vector (GE Healthcare, Uppsala), yielding N-terminal glutathione-S-transferase (GST) fusion proteins. Mutations were introduced using a two-stage PCR procedure based on the QuikChange (Stratagene, Santa Clara) site-directed mutagenesis protocol. All experiments with human CBG were conducted with a mutant in which surface residue Lys126 was replaced by alanine in order to facilitate crystallization. Wild-type rat CBG (rat CBG-WT) and rat CBG mutants CBG-RCL1, CBG-RCL2 and CBG-RCL3 were produced to probe the function of the RCL residues in rat CBG. All gene constructs were confirmed by DNA sequencing prior to protein production.
# The GST-tagged human and rat CBG variants were produced in E. coli BL21 Star™ (DE3) cells (Invitrogen, Carlsbad) using the ZYM-5052 auto-inducing medium. For each variant, 10 L of ZYM-5052 medium containing 100 µg/mL ampicillin were inoculated with an overnight culture of a single clone. The flasks were incubated at 37°C until the optical density at 600 nm reached 0.3. The temperature was then lowered to 20°C, and the cells were allowed to grow for an additional 20 h. The pellet was resuspended in PBS buffer (pH 7.4) containing 5 mM EDTA after cell harvesting (4 mL of buffer per gram of pellet).
# The protein samples were dialyzed against ITC buffer (20 mM potassium phosphate, 50 mM NaCl, pH 7.4) and titrated with steroids in a VP-ITC microcalorimeter (Microcal, Piscataway). All solutions were filtered (0.2 µm filter pore size) and degassed for 30 min prior to the titration experiments. The sample cell was filled with protein solution containing 15 µM rat CBG or 20 µM human CBG and titrated with steroid solutions containing 150 µM and 200 µM ligand, respectively. The titrations consisted of an initial injection of 2 µL followed by 25 consecutive injections of 10 µL ligand solution at 25°C. A spacing of 240 sec between the injections was used to allow a return to the baseline. Data points from the initial injection, which are generally affected by diffusion during the initial equilibration period after experiment setup, were discarded prior to data analysis. […] The binding curve was generated by plotting the heats of injections against the ratio of ligand to protein in the cell. Integrated heat data were analyzed using nonlinear regression fit with a one-site-binding model in the Origin-7™ software provided with the VP-ITC. Changes in the free energy and entropy can be calculated using the equation: ΔG° = −RTlnK = ΔH°−TΔS°. In this equation ΔG° is the change in Gibbs free energy, R the universal gas constant, T the temperature, and K the association constant. The change in enthalpy is denoted as ΔH°, and ΔS° is the change in entropy under standard conditions. The data shown in Table 2 were obtained from single titrations of each complex.
# [1] = Thermal denaturation monitored by CD spectroscopy; type: physicochemical; settings: for thermal unfolding temperature / thermal stability: CD at 222 or 220 nm, 1°C/min, 10 mM potassium phosphate pH 7.4; for change of thermal stability upon RCL cleavage: elastase-cleaved vs uncleaved, CD-monitored
# Protocol: Heat-induced unfolding transitions were recorded at protein concentrations between 0.5 and 0.7 µM in 10 mM potassium phosphate (pH 7.4). The samples were heated at a rate of 1°C/min in a 1 cm cell and the ellipticity was monitored at 222 or 220 nm. The sensitivity was set to 50 mdeg with a bandwidth of 1 nm and 8 sec response time.
molecule,measurement,setting,value
C[C@]12C[C@H](O)[C@H]3[C@@H](CCC4=CC(=O)CC[C@@]43C)[C@@H]1CC[C@@H]2C(=O)CO [Corticosterone],TΔS°,Rat CBG-WT; rat CBG-WT,-14.6 kcal/mol
same,ΔG°,Rat CBG-WT; rat CBG-WT,-10.2 kcal/mol
same,ΔH°,Rat CBG-WT; rat CBG-WT,-24.76 kcal/mol
same,Kd,"Rat CBG-WT; single titration, uncleaved rat CBG-WT",37 ± 2 nM
cleaved human alpha-1-antitrypsin: human alpha-1-antitrypsin after cleavage of the RCL,thermal unfolding temperature / thermal stability,[1],90 °C
"uncleaved human alpha-1-antitrypsin: human alpha-1-antitrypsin, archetypical member of the SERPIN family, used to validate the setup",thermal unfolding temperature / thermal stability,[1],about 60 °C
B1,change of thermal stability upon RCL cleavage,[1],neither of these humanized rat CBG variants displayed an increased thermal stability
B2,change of thermal stability upon RCL cleavage,[1],neither of these humanized rat CBG variants displayed an increased thermal stability
